# Results from patent US11091478B2 (Fochon Pharmaceuticals, Ltd., priority 2017, dated 2021).
# Assays:
# RS4;11 cells = test: Cell proliferation assay (MTS), RS4;11 cells, 72 h; format: cell-based; conditions: Homo sapiens, RS4-11, 72 h
# Method in brief: (§1)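 Cells in RPMI-1640 with 10% FBS were seeded at 5000/well, left overnight at 37° C., 5% CO2, then exposed to compound at 10000 down to 1.5 nM (nine concentrations) for 72 h (RS4;11) or 120 h (DOHH2). Viability was read by MTS, 2 h, absorbance at 490/650 nm; IC50 calculated.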
# DOHH2 cells = test: Cell proliferation assay (MTS), DOHH2 cells, 120 h; format: cell-based; conditions: Homo sapiens, DOHH-2, 120 h
# Method in brief: as §1
structure (smiles),measurement,setting,value
"CC1(C)CCC(CN2CCN(c3ccc(C(=O)NS(=O)(=O)c4cc5c(c([N+](=O)[O-])c4)N[C@H](Cc4ccc(Cl)cc4)CO5)c(Oc4cnc5[nH]ccc5c4)c3)CC2)=C(c2ccc(Cl)cc2)C1 [Example 2-160, (R)-2-((1H-pyrrolo[2,3-b]pyridin-5-yl)oxy)-4-(4-((4′-chloro-5,5-dimethyl-3,4,5,6-tetra-hydro-[1,1′-biphenyl]-2-yl)methyl)piperazin-yl)-N-((3-(4-chlorobenzyl)-5-nitro-3,4-dihydro-2H-benzo[b][1,4]oxazin-7-yl)sulfo-nyl)benzamide]",IC50,RS4;11 cells,95 nM
same,IC50,DOHH2 cells,168 nM
"COc1ccc(CC2COc3cc(S(=O)(=O)NC(=O)c4ccc(N5CCN(CC6=C(c7ccc(Cl)cc7)CC(C)(C)CC6)CC5)cc4Oc4cnc5[nH]ccc5c4)cc([N+](=O)[O-])c3N2)nc1 (centres unmarked) [Example 2-161, 2-((1H-pyrrolo[2,3-b]pyridin-5-yl)oxy)-4-(4-((4′-chloro-5,5-dimethyl-3,4,5,6-tetrahydro-[1,1′-biphenyl]-2-yl)methyl)piperazin-1-yl)-N-((3-((5-methoxypyridin-2-yl)methyl)-5-nitro-3,4-dihydro-2H-benzo[b][1,4]oxa-zin-7-yl)sulfonyl)benzamide]",IC50,RS4;11 cells,17 nM
same,IC50,DOHH2 cells,20 nM
"COc1ccc(C[C@H]2COc3cc(S(=O)(=O)NC(=O)c4ccc(N5CCN(CC6=C(c7ccc(Cl)cc7)CC(C)(C)CC6)CC5)cc4Oc4cnc5[nH]ccc5c4)cc([N+](=O)[O-])c3N2)nc1 [Example 2-162, (S)-2-((1H-pyrrolo[2,3-b]pyridin-5-yl)oxy)-4-(4-((4′-chloro-5,5-dimethyl-3,4,5,6-tetra-hydro-[1,1′-biphenyl]-2-yl)methyl)piperazin-1-yl)-N-((3-((5-methoxypyridin-2-yl)meth-yl)-5-nitro-3,4-dihydro-2H-benzo[b][1,4]oxain-7-yl)sulfonyl)benzamide]",IC50,RS4;11 cells,43 nM
same,IC50,DOHH2 cells,325 nM
"CC1(C)CCC(CN2CCN(c3ccc(C(=O)NS(=O)(=O)c4cc5c(c([N+](=O)[O-])c4)N[C@@H](Cc4cccnc4)CO5)c(Oc4cnc5[nH]ccc5c4)c3)CC2)=C(c2ccc(Cl)cc2)C1 [Example 2-163, (S)-2-((1H-pyrrolo[2,3-b]pyridin-5-yl)oxy)-4-(4-((4′-chloro-5,5-dimethyl-3,4,5,6-tetra-hydro-[1,1′-biphenyl]-2-yl)methyl)piperazin-1-yl)-N-((5-nitro-3-(pyridin-3-ylmethyl)-3,4-dihydro-2H-benzo[b][1,4]oxazin-7-yl)sulfonyl)benzamide]",IC50,RS4;11 cells,29 nM
same,IC50,DOHH2 cells,53 nM
CC1(C)CCC(CN2CCN(c3ccc(C(=O)NS(=O)(=O)c4cc5c(c([N+](=O)[O-])c4)N[C@@H](Cc4ccncc4)CO5)c(Oc4cnc5[nH]ccc5c4)c3)CC2)=C(c2ccc(Cl)cc2)C1 [Example 2-164],IC50,RS4;11 cells,34 nM
same,IC50,DOHH2 cells,16 nM
"CC1(C)CCC(CN2CCN(c3ccc(C(=O)NS(=O)(=O)c4cc5c(c([N+](=O)[O-])c4)N[C@H](c4ccc(F)cc4)CO5)c(Oc4cnc5[nH]ccc5c4)c3)CC2)=C(c2ccc(Cl)cc2)C1 [Example 2-166, (R)-2-((1H-pyrrolo[2,3-b]pyridin-5-yl)oxy)-4-(4-((4′-chloro-5,5-dimethyl-3,4,5,6-tetra-hydro-[1,1′-biphenyl]-2-yl)methyl)piperazin-1-yl)-N-((3-(4-fluorophenyl)-5-nitro-3,4-dihydro-2H-benzo[b][1,4]oxazin-7-yl)sulfo-nyl)benzamide]",IC50,RS4;11 cells,82 nM
same,IC50,DOHH2 cells,300 nM
"CC1(C)CCC(CN2CCN(c3ccc(C(=O)NS(=O)(=O)c4cc5c(c([N+](=O)[O-])c4)N[C@@H](c4ccc(S(C)(=O)=O)cc4)CO5)c(Oc4cnc5[nH]ccc5c4)c3)CC2)=C(c2ccc(Cl)cc2)C1 [Example 2-168, (S)-2-((1H-pyrrolo[2,3-b]pyridin-5-yl)oxy)-4-(4-((4′-chloro-5,5-dimethyl-3,4,5,6-tetra-hydro-[1,1′-biphenyl]-2-yl)methyl)piperazin-1-yl)-N-((3-(4-(methylsulfonyl)phenyl)-5-nitro-3,4-dihydro-2H-benzo[b][1,4]oxazin-7-yl)sulfonyl)benzamide]",IC50,RS4;11 cells,33 nM
same,IC50,DOHH2 cells,32 nM
"CC1(C)CCC(CN2CCN(c3ccc(C(=O)NS(=O)(=O)c4cc5c(c([N+](=O)[O-])c4)N[C@H](c4ccc(S(C)(=O)=O)cc4)CO5)c(Oc4cnc5[nH]ccc5c4)c3)CC2)=C(c2ccc(Cl)cc2)C1 [Example 2-175, (R)-2-((1H-pyrrolo[2,3-b]pyridin-5-yl)oxy)-4-(4-((4′-chloro-5,5-dimethyl-3,4,5,6-tetra-hydro-[1,1′-biphenyl]-2-yl)methyl)piperazin-1-yl)-N-((3-(4-(methylsulfonyl)phenyl)-5-nitro-3,4-dihydro-2H-benzo[b][1,4]oxazin-7-yl)sulfonyl)benzamide]",IC50,RS4;11 cells,53 nM
same,IC50,DOHH2 cells,139 nM
"COc1ccc([C@H]2COc3cc(S(=O)(=O)NC(=O)c4ccc(N5CCN(CC6=C(c7ccc(Cl)cc7)CC(C)(C)CC6)CC5)cc4Oc4cnc5[nH]ccc5c4)cc([N+](=O)[O-])c3N2)cc1 [Example 2-176, (S)-2-((1H-pyrrolo[2,3-b]pyridin-5-yl)oxy)-4-(4-((4′-chloro-5,5-dimethyl-3,4,5,6-tetra-hydro-[1,1′-biphenyl]-2-yl)methyl)piperazin-1-yl)-N-((3-(4-methoxyphenyl)-5-nitro-3,4-dihydro-2H-benzo[b][1,4]oxazin-7-yl)sul-fonyl)benzamide]",IC50,RS4;11 cells,64 nM
same,IC50,DOHH2 cells,547 nM
"CC1(C)CCC(CN2CCN(c3ccc(C(=O)NS(=O)(=O)c4cc5c(c([N+](=O)[O-])c4)N[C@H](c4ccccn4)CO5)c(Oc4cnc5[nH]ccc5c4)c3)CC2)=C(c2ccc(Cl)cc2)C1 [Example 2-177, (R)-2-((1H-pyrrolo[2,3-b]pyridin-5-yl)oxy)-4-(4-((4′-chloro-5,5-dimethyl-3,4,5,6-tetra-hydro-[1,1′-biphenyl]-2-yl)methyl)piperazin-1-yl)-N-((5-nitro-3-(pyridin-2-yl)-3,4-di-hydro-2H-benzo[b][1,4]oxazin-7-yl)sulfonyl) benzamide]",IC50,RS4;11 cells,13 nM
same,IC50,DOHH2 cells,119 nM
"COc1ccc([C@@H]2COc3cc(S(=O)(=O)NC(=O)c4ccc(N5CCN(CC6=C(c7ccc(Cl)cc7)CC(C)(C)CC6)CC5)cc4Oc4cnc5[nH]ccc5c4)cc([N+](=O)[O-])c3N2)nc1 [Example 2-179, (R)-2-((1H-pyrrolo[2,3-b]pyridin-5-yl)oxy)-4-(4-((4′-chloro-5,5-dimethyl-3,4,5,6-tetra-hydro-[1,1′-biphenyl]-2-yl)methyl)pieprazin-1-yl)-N-((3-(5-methoxypyridin-2-yl)-5-ni-tro-3,4-dihydro-2H-benzo[b][1,4]oxazin-7-yl)sulfonyl)benzamide]",IC50,RS4;11 cells,18 nM
same,IC50,DOHH2 cells,380 nM
"CC1(C)CCC(CN2CCN(c3ccc(C(=O)NS(=O)(=O)c4cc5c(c([N+](=O)[O-])c4)NC(CC4CCOCC4)CO5)c(Oc4cnc5[nH]ccc5c4)c3)CC2)=C(c2ccc(Cl)cc2)C1 (centres unmarked) [Example 2-180, 2-((1H-pyrrolo[2,3-b]pyridin-5-yl)oxy)-4-(4-((4′-chloro-5,5-dimethyl-3,4,5,6-tetrahydro-[1,1′-biphenyl]-2-yl)methyl)piperazin-1-yl)-N-((5-nitro-3-((tetrahydro-2H-pyran-4-yl)methyl)-3,4-dihydro-2H-benzo[b][1,4]oxazin-7-yl)sulfonyl)benzamide]",IC50,RS4;11 cells,8 nM
same,IC50,DOHH2 cells,15 nM
"CC1(C)CCC(CN2CCN(c3ccc(C(=O)NS(=O)(=O)c4cc5c(c([N+](=O)[O-])c4)N[C@H](CC4CCOCC4)CO5)c(Oc4cnc5[nH]ccc5c4)c3)CC2)=C(c2ccc(Cl)cc2)C1 [Example 2-181, (R)-2-((1H-pyrrolo[2,3-b]pyridin-5-yl)oxy)-4-(4-((4′-chloro-5,5-dimethyl-3,4,5,6-tetra-hydro-[1,1′-biphenyl]-2-yl)methyl)piperazin-1-yl)-N-((5-nitro-3-((tetrahydro-2H-pyran-4-yl)methyl)-3,4-dihydro-2H-benzo[b] [1,4]oxazin-7-yl)sulfonyl)benzamide]",IC50,RS4;11 cells,45 nM
same,IC50,DOHH2 cells,84 nM
"CC1(C)CCC(CN2CCN(c3ccc(C(=O)NS(=O)(=O)c4cc5c(c([N+](=O)[O-])c4)N[C@@H](CC4CCOCC4)CO5)c(Oc4cnc5[nH]ccc5c4)c3)CC2)=C(c2ccc(Cl)cc2)C1 [Example 2-182, (S)-2-((1H-pyrrolo[2,3-b]pyridin-5-yl)oxy)-4-(4-((4′-chloro-5,5-dimethyl-3,4,5,6-tetra-hydro-[1,1′-biphenyl]-2-yl)methyl)piperazin-1-yl)-N-((5-nitro-3-((tetrahydro-2H-pyran-4-yl)methyl)-3,4-dihydro-2H-benzo[b] [1,4]oxazin-7-yl)sulfonyl)benzamide]",IC50,RS4;11 cells,3 nM
same,IC50,DOHH2 cells,16 nM
"CC1(C)CCC(CN2CCN(c3ccc(C(=O)NS(=O)(=O)c4cc5c(c([N+](=O)[O-])c4)N[C@@H](COC4CCOCC4)CO5)c(Oc4cnc5[nH]ccc5c4)c3)CC2)=C(c2ccc(Cl)cc2)C1 [Example 2-183, (S)-2-((1H-pyrrolo[2,3-b]pyridin-5-yl)oxy)-4-(4-((4′-chloro-5,5-dimethyl-3,4,5,6-tetra-hydro-[1,1′-biphenyl]-2-yl)methyl)piperazin-1-yl)-N-((5-nitro-3-(((tetrahydro-2H-pyran-4-yl)oxy)methyl)-3,4-dihydro-2H-benzo [b][1,4]oxazin-7-yl)sulfonyl)benzamide]",IC50,RS4;11 cells,4 nM
same,IC50,DOHH2 cells,20 nM
"CC1(C)CCC(CN2CCN(c3ccc(C(=O)NS(=O)(=O)c4cc5c(c([N+](=O)[O-])c4)N[C@H](COC4CCOCC4)CO5)c(Oc4cnc5[nH]ccc5c4)c3)CC2)=C(c2ccc(Cl)cc2)C1 [Example 2-184, (R)-2-((1H-pyrrolo[2,3-b]pyridin-5-yl)oxy)-4-(4-((4′-chloro-5,5-dimethyl-3,4,5,6-tetra-hydro-[1,1′-biphenyl]-2-yl)methyl)piperazin-1-yl)-N-((5-nitro-3-(((tetrahydro-2H-pyran-4-yl)oxy)methyl)-3,4-dihydro-2H-benzo [b][1,4]oxazin-7-yl)sulfonyl)benzamide]",IC50,RS4;11 cells,3 nM
same,IC50,DOHH2 cells,11 nM
